Data reported in patent US12378193B2, “Anti-arrhythmicity agents” (The Regents of the University of California, priority 2014, dated 2025).
“Also recorded” adds a separate entry of the source.

Legend:
V1/V3 DKO MEFs = assay: Mitochondria Ca2+ uptake assay in VDAC1/VDAC3 double knockout MEFs; assay type: cell-based
Experimental: V1/V3 DKO MEFs were cultured as previously described (Roy et al., 2009a, EMBO Rep 10, 1341-1347). Efsevin-treated (15 μM for 30 min) or mock-treated MEFs were used for measurements of [Ca^2+]c in suspensions of permeabilized cells or imaging of [Ca^2+]m simultaneously with [Ca^2+]c in intact single cells. Permeabilization of the plasma membrane was performed by digitonin ([…]). Changes in [Ca^2+] in the cytoplasmic buffer upon IP3 (7.5 μM) addition in the presence or absence of ruthenium red (3 μM) was measured by fura2 in a fluorometer (Csordas et al., 2006, J Cell Biol 174, 915-921; Roy et al., 2009b, Mol Cell 33, 377-388). To avoid endoplasmic reticulum Ca^2+ uptake 2 μM thapsigargin was added before IP3. For imaging of [Ca^2+]m and [Ca^2+]c, MEFs were co-transfected with plasmids encoding polycistronic zebrafish VDAC2 with mCherry and mitochondria-targeted inverse pericam for 40 hours. Cells were sorted to enrich the transfected cells and attached to glass coverslips. In the final 10 min, of the efsevin or mock-treatment, the cells were also loaded with fura2AM (2.5μ[…]) and subsequently transferred to the microscope stage. Stimulation with 1 μM ATP was carried out in a norminally Ca^2+ free buffer. […]

[1] = system: mouse embryonic stem cell-derived cardiomyocytes (mESC-CMs); assay: Ca2+ overload-induced irregular Ca2+ transients and contractions in mESC-CMs; assay type: cell-based; conditions: 10 mM Ca2+ext + 10 μM efsevin
Experimental: The mouse E14Tg2a ESC and human H9 ESC line were cultured and differentiated as previously described (Blin et al., 2010, J Clin Invest 120, 1125-1139; Arshi et al., 2013, Sci Technol Adv Mater 2013, 025003). At day 10 of differentiation, beating mouse EBs were exposed to external solution containing 10 mM CaCl2 for 10 minutes before DMSO or efsevin (10 μM) treatment. Human EBs were differentiated for 15 days and treated with 5 mM CaCl2) for 10 minutes before DMSO or efsevin (5 μM) treatment. Images of beating EBs were acquired at a rate of 30 frames/sec and analyzed by motion-detection software. For calcium recording, the EBs were loaded with 10 μM fluo-4 AM in culture media for 30 minutes at 37° C. Line-scan analysis was performed and fluorescent signals were acquired by a Zeiss LSM510 confocal microscope.

VDAC2 = assay: Affinity bead pull down from zebrafish embryo lysate with mass spectrometry; assay type: binding; conditions: zebrafish embryonic lysate, affinity agarose beads
Experimental: For pull down assays mono-N-Boc protected 2,2′-(ethylenedioxy)bis(ethylamine) was attached to the carboxylic ester of efsevin and its derivatives through the amide bond. After removal of the Boc group using TFA, the primary amine was coupled to the carboxylic acid of Affi-Gel 10 Gel (Biorad). Two-day-old zebrafish embryos were deyolked by centrifugation before being lysed with Rubinfeld's lysis buffer (Rubinfeld et al., 1993, Science 262, 1731-1734). The lysate was precleaned by incubation with Affi-Gel 10 Gel to eliminate non-specific binding. Precleaned lysate was incubated with affinity beads overnight. Proteins were eluted from the affinity beads and separated on SDS-PAGE. Protein bands of interest were excised. Gel plugs were dehydrated in acetonitrile (ACN) and dried completely in a Speedvac. Samples were reduced and alkylated with 10 mM dithiotreitol and 10 mM TCEP solution in 50 mM NH4HCO3 (30 min at 56° C.) and 100 mM iodoacetamide (45 min in dark), respectively. Gel plugs were washed with 50 mM NH4HCO3, dehydrated with ACN, and dried down in a Speedvac. Gel pieces were then swollen in digestion buffer containing 50 mM NH4HCO3, and 20.0 ng/μL of chymotrypsin (25° C., overnight). Peptides were extracted with 0.1% TFA in 50% ACN solution, dried down and resuspended in LC buffer A (0.1% formic acid, 2% ACN).
Extracted peptides were analyzed by nano-flow LC/MS/MS on a Thermo Orbitrap with dedicated Eksigent nanopump using a reversed phase column (New Objective). The flow rate was 200 nL/min for separation: mobile phase A contained 0.1% formic acid, 2% ACN in water, and mobile phase B contained 0.1% formic acid, 20% water in ACN. The gradient used for analyses was linear from 5% B to 50% B over 60 min, then to 95% B over 15 min, and finally keeping constant 95% B for 10 min. Spectra were acquired in data-dependent mode with dynamic exclusion where the instrument selects the top six most abundant ions in the parent spectra for fragmentation. […]

[2] = system: zebrafish tremblor (tre) embryos; assay: Cardiac performance (line-scan fractional shortening, heart rate) of tremblor embryos; assay type: in vivo
Experimental: Movies of GFP-labelled myl7:GFP hearts were taken at 30 frames per second. Line-scan analysis was performed along a line through the atria or the ventricles of these hearts (Nguyen et al., 2009, Drug Discovery Today: Disease Models 5). Fraction of shortening was deduced from the ratio of diastolic and systolic width and heart rate was determined by beats per minute. Cardiac parameters were analyzed in tremblor^tc318 and VDAC2^LA2256 at 2 dpf.

CCOC(=O)C1=CCN(S(=O)(=O)c2ccc(C)cc2)C1c1ccccc1 (centres unmarked) [efsevin]
transfer of Ca2+ released from intracellular stores into mitochondria (V1/V3 DKO MEFs; intact V1/V3 DKO MEFs, stimulation with ATP): accelerated the transfer of Ca^2+
Ca2+ transferred into mitochondria during IP3-induced Ca2+ release (V1/V3 DKO MEFs; permeabilized V1/V3DKO MEFs, efsevin 15 μM for 30 min, 7.5 μM IP3): increased the amount of Ca^2+ transferred into mitochondria
rhythmic Ca2+ transients and contractions under Ca2+ overload [1]: restored rhythmic Ca2+ transients and cardiac contractions; also recorded: restores regular Ca^2+ transients
pull down of the 32 kD band (VDAC2) (VDAC2): pulled down
heart rate ([2]; efsevin-treated tre embryos): 46±2 beats per minute (bpm)
heart rate restored, relative to wild-type/controls ([2]; efsevin-treated tre embryos, 2 dpf, % of wild-type heart rate): approximately 40%
Atrial FS ([2]; tre + efsevin, 48 hpf): 33±2%
Ventricular FS ([2]; tre + efsevin, 48 hpf): 35±3%
